US20240209028A1, “CNP COMPOUNDS” (priority 2022, published 2024)
Starred links: 1 amine or outer side, 2 acyl side, 3 side chain; linkers in the order of their positions; H or OH if unused. Positions of bridges follow the written chain, without caps; N, C: chain ends. Residues, ends and D or L forms follow the SMILES beside them. *: point of attachment. C18 diacid = O=C(O)CCCCCCCCCCCCCCCCC(=O)*; γGlu = O=C(O)[C@H](CCC(=O)[*:2])N[*:1]; AEEA = NCCOCCOCC(=O)O

Biological target: T1, human natriuretic peptide receptor 2 (hNPR2) (Homo sapiens, UniProt P20594)
T1 construct: expressed in transfected cells; host or cells: HEK293 (ATCC CRL-1573), clone 35, co-transfected with pGloSensor-42F
T1 sequence (P20594 23-1047): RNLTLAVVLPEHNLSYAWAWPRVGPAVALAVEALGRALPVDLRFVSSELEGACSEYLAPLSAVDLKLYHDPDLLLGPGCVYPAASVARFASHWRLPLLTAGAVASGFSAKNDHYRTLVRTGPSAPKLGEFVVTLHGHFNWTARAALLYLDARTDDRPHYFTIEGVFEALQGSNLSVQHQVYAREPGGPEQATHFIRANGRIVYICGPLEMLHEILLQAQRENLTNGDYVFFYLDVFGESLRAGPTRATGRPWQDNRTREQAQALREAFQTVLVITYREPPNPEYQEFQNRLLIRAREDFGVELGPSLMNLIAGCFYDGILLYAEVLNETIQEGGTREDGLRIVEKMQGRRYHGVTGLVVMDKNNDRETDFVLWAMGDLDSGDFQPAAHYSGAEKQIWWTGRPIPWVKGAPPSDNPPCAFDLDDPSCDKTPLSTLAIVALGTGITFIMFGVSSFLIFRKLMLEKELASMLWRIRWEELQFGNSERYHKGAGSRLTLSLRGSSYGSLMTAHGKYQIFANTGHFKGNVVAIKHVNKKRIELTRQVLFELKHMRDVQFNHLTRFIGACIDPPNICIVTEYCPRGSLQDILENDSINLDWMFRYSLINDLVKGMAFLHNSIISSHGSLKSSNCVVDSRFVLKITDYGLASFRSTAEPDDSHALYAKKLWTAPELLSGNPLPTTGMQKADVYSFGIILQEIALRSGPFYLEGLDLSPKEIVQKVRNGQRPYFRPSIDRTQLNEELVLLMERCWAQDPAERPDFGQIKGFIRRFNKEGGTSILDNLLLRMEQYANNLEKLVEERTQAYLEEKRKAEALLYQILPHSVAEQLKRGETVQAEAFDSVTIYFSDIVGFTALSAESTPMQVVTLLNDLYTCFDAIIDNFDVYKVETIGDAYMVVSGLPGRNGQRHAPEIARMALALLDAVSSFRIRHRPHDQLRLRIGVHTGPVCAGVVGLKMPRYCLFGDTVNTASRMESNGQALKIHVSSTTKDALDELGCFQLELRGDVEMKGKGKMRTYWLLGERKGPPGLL
Assay: In vitro hNPR2 activity assay (cGMP GloSensor reporter, HEK293)
Format: cell-based
Conditions: for hNPR2 0% HSA. [EC50% rel CNP]: potency relative to CNP22 (0065); for EC50: 0% HSA, HEK293-hNPR2/GloSensor cells
Description: To evaluate the in vitro activity of CNP22 (0065; Chem. 1) and CNP compounds of the invention, they were tested for their ability to induce production of cyclic guanosine monophosphate (cGMP) in reporter cells expressing the human natriuretic peptide receptor 2 (hNPR2).
Cell culture: To produce the reporter cell line, HEK293 (ATCC® CRL-1573™) cells were stably transfected with the pGloSensor-42F reporter plasmid (GloSensor cGMP reporter—luciferase, Promega) and an expression plasmid encoding the hNPR2 receptor. A single cell clone was isolated for the reporter cell line. When reporter cells are exposed to an hNPR2 activating compound, hNPR2 cause production of cGMP. […] Active GloSensor luciferase is able to convert luciferin to oxyluciferin, a process that produces bioluminescence. Upon cell lysis and supply of luciferase substrate, luciferase activity can be quantified by detection of luminescence. Therefore, addition of an hNPR2 activating compound and subsequent addition of detection reagent to reporter cells causes generation of luminescence in a dose dependent manner. […] This measure, also referred to as in vitro potency, is reported for all compounds tested. In all the in vitro activity experiments, CNP22 was used as a positive in-plate control for hNPR2 activation. To reduce inter-assay variation, we also report the potency of each compound relative to the potency of the CNP22 control on each plate.
Procedure: HEK293-hNPR2/GloSensor clone 35 cells were continuously cultured in selection medium (DMEM containing 10% FCS, 1% P/S, 200 μg/mL G418 and 100 μg/mL hygromycin). To perform the assay, cells were detached with TrypLE Express (Gibco #12604013), put through a 70 μm cell strainer, counted and seeded in 30 μL/well assay medium (DMEM without phenol red and with 1% P/S) at 10,000 cells/well in white 384-well plates (Perkin Elmer #6007680) overnight. The following day, test compounds were serial diluted in dilution medium (DMEM without phenol red containing 1% OVA (Sigma #A5505 lot 04M7001V), 0.01% Tween20 (Roche #33766700) and 1% P/S) and 10 μL/well of diluted test compounds were subsequently added to the cells. For each compound, ten different concentrations in the range 0.25 μM-10 μM were tested. After 30 min of incubation at 37° C. and 5% CO2, 40 μL/well Bright-Glo detection reagent (Promega #E2650) was added. […] To determine the in vitro potency or EC50 of each test compound, a four parameter logistic regression was done on the raw data for each test compound using the Python package SciPy optimize. The average EC50 values are listed as “hNPR2 0% HSA. [EC50 (nM)]” in Table 2. A relative potency was calculated by the following expression: EC50 (CNP22 in-plate control)/EC50 (test compound)*100, shown as “hNPR2 0% HSA. [EC50% rel CNP]” in Table 2. A minimum of two replicates was measured for each test compound.

Structure (SMILES) | hNPR2 0% HSA. [EC50% rel CNP] [%] | EC50 [nM]
CC[C@H](C)[C@@H]1NC(=O)[C@H](CCCNC(=N)N)NC(=O)[C@H](CC(=O)O)NC(=O)[C@H](CC(C)C)NC(=O)[C@H](CCCCN)NC(=O)[C@H](CC(C)C)NC(=O)CNC(=O)[C@H](Cc2ccccc2)NC(=O)[C@@H](NC(=O)CNC(=O)[C@H](CCCCN)NC(=O)[C@H](CO)NC(=O)[C@H](CC(C)C)NC(=O)CN)CSSC[C@@H](C(=O)O)NC(=O)CNC(=O)[C@H](CC(C)C)NC(=O)CNC(=O)[C@H](CO)NC(=O)[C@H](CCSC)NC(=O)[C@H](CO)NC(=O)CNC1=O [compound 0065] | 100.0 | 
CC[C@H](C)[C@@H]1NC(=O)[C@H](CCCNC(=N)N)NC(=O)[C@H](CC(=O)O)NC(=O)[C@H](CC(C)C)NC(=O)[C@H](CCCCN)NC(=O)[C@H](CC(C)C)NC(=O)CNC(=O)[C@H](Cc2ccccc2)NC(=O)[C@@H](NC(=O)CNC(=O)[C@H](CCCCN)NC(=O)[C@H](CO)NC(=O)[C@H](CC(C)C)NC(=O)CNC(=O)COCCOCCNC(=O)COCCOCCNC(=O)CC[C@H](NC(=O)CCCCCCCCCCCCCCCCC(=O)O)C(=O)O)CSSC[C@@H](C(=O)O)NC(=O)CNC(=O)[C@H](CC(C)C)NC(=O)CNC(=O)[C@H](CO)NC(=O)[C@H](CCSC)NC(=O)[C@H](CO)NC(=O)CNC1=O [compound 0089] | 3.1 | 12.3
CC[C@H](C)[C@@H]1NC(=O)[C@H](CCCNC(=N)N)NC(=O)[C@H](CC(=O)O)NC(=O)[C@H](CC(C)C)NC(=O)[C@H](CCCCN)NC(=O)[C@H](CC(C)C)NC(=O)CNC(=O)[C@H](Cc2ccccc2)NC(=O)[C@@H](NC(=O)CNC(=O)[C@H](CCCCN)NC(=O)[C@H](CO)NC(=O)[C@H](CC(C)C)NC(=O)CNC(=O)COCCOCCNC(=O)COCCOCCNC(=O)COCCOCCNC(=O)COCCOCCNC(=O)COCCOCCNC(=O)COCCOCCNC(=O)COCCOCCNC(=O)COCCOCCNC(=O)CC[C@H](NC(=O)CCCCCCCCCCCCCCCCC(=O)O)C(=O)O)CSSC[C@@H](C(=O)O)NC(=O)CNC(=O)[C@H](CC(C)C)NC(=O)CNC(=O)[C@H](CO)NC(=O)[C@H](CCSC)NC(=O)[C@H](CO)NC(=O)CNC1=O [compound 0231] | 0.8 | 14.5
CC[C@H](C)[C@@H]1NC(=O)[C@H](CCCNC(=N)N)NC(=O)[C@H](CC(=O)O)NC(=O)[C@H](CC(C)C)NC(=O)[C@H](CCCCN)NC(=O)[C@H](CC(C)C)NC(=O)CNC(=O)[C@H](Cc2ccccc2)NC(=O)[C@@H](NC(=O)CNC(=O)[C@H](CCCCN)NC(=O)[C@H](CO)NC(=O)[C@H](CC(C)C)NC(=O)CNC(=O)[C@H](CCCCN)NC(=O)[C@H](CCCCN)NC(=O)[C@H](CCC(N)=O)NC(=O)[C@H](C)NC(=O)CNC(=O)[C@H](CCC(=O)O)NC(=O)[C@H](Cc2ccc(O)cc2)NC(=O)COCCOCCNC(=O)COCCOCCNC(=O)CC[C@H](NC(=O)CCCCCCCCCCCCCCCCC(=O)O)C(=O)O)CSSC[C@@H](C(=O)O)NC(=O)CNC(=O)[C@H](CC(C)C)NC(=O)CNC(=O)[C@H](CO)NC(=O)[C@H](CC(C)C)NC(=O)[C@H](CO)NC(=O)CNC1=O [compound 1221] | 35.9 | 1.17
CC[C@H](C)[C@@H]1NC(=O)[C@H](CCCNC(=N)N)NC(=O)[C@H](CC(=O)O)NC(=O)[C@H](CC(C)C)NC(=O)[C@H](CCCCN)NC(=O)[C@H](CC(C)C)NC(=O)CNC(=O)[C@H](Cc2ccccc2)NC(=O)[C@@H](NC(=O)CNC(=O)[C@H](CCCCN)NC(=O)[C@H](CO)NC(=O)[C@H](CC(C)C)NC(=O)CNC(=O)[C@H](CCCCN)NC(=O)[C@H](CCCCN)NC(=O)[C@H](CCC(N)=O)NC(=O)[C@H](C)NC(=O)CNC(=O)[C@H](CCC(=O)O)NC(=O)[C@H](CCC(=O)O)NC(=O)COCCOCCNC(=O)COCCOCCNC(=O)CC[C@H](NC(=O)CCCCCCCCCCCCCCCCC(=O)O)C(=O)O)CSSC[C@@H](C(=O)O)NC(=O)CNC(=O)[C@H](CC(C)C)NC(=O)CNC(=O)[C@H](CO)NC(=O)[C@H](CC(C)C)NC(=O)[C@H](CO)NC(=O)CNC1=O [compound 1222] | 14.3 | 2.94
CC[C@H](C)[C@@H]1NC(=O)[C@H](CCCNC(=N)N)NC(=O)[C@H](CC(=O)O)NC(=O)[C@H](CC(C)C)NC(=O)[C@H](CCCCN)NC(=O)[C@H](CC(C)C)NC(=O)CNC(=O)[C@H](Cc2ccccc2)NC(=O)[C@@H](NC(=O)CNC(=O)[C@H](CCCCN)NC(=O)[C@H](CO)NC(=O)[C@H](CC(C)C)NC(=O)CNC(=O)[C@H](CCCCN)NC(=O)[C@H](CCC(=O)O)NC(=O)[C@H](CCC(N)=O)NC(=O)[C@H](C)NC(=O)CNC(=O)[C@H](CCC(=O)O)NC(=O)[C@H](Cc2ccc(O)cc2)NC(=O)COCCOCCNC(=O)COCCOCCNC(=O)CC[C@H](NC(=O)CCCCCCCCCCCCCCCCC(=O)O)C(=O)O)CSSC[C@@H](C(=O)O)NC(=O)CNC(=O)[C@H](CC(C)C)NC(=O)CNC(=O)[C@H](CO)NC(=O)[C@H](CC(C)C)NC(=O)[C@H](CO)NC(=O)CNC1=O [compound 1223] ({C18 diacid-γGlu-AEEA-AEEA}-YEGAQEKGLSKGCFGLKLDRIGSLSGLGC-OH; disulfide 13-29) | 6.77 | 1.05
CC[C@H](C)[C@@H]1NC(=O)[C@H](CCCNC(=N)N)NC(=O)[C@H](CC(=O)O)NC(=O)[C@H](CC(C)C)NC(=O)[C@H](CCCCN)NC(=O)[C@H](CC(C)C)NC(=O)CNC(=O)[C@H](Cc2ccccc2)NC(=O)[C@@H](NC(=O)CNC(=O)[C@H](CO)NC(=O)[C@H](CO)NC(=O)[C@H](CC(C)C)NC(=O)CNC(=O)[C@H](CCCCN)NC(=O)[C@H](CCCCN)NC(=O)[C@H](CCC(N)=O)NC(=O)[C@H](C)NC(=O)CNC(=O)[C@H](CCC(=O)O)NC(=O)[C@H](Cc2ccc(O)cc2)NC(=O)COCCOCCNC(=O)COCCOCCNC(=O)CC[C@H](NC(=O)CCCCCCCCCCCCCCCCC(=O)O)C(=O)O)CSSC[C@@H](C(=O)O)NC(=O)CNC(=O)[C@H](CC(C)C)NC(=O)CNC(=O)[C@H](CO)NC(=O)[C@H](CC(C)C)NC(=O)[C@H](CO)NC(=O)CNC1=O [compound 1224] ({C18 diacid-γGlu-AEEA-AEEA}-YEGAQKKGLSSGCFGLKLDRIGSLSGLGC-OH; disulfide 13-29) | 16.9 | 0.86
